According to patent US10011609B2, “Heterocyclic compounds” (CADILA HEALTHCARE LIMITED, priority 2013, dated 2018):
Like-named read-outs stand apart in the source and are kept apart here. Blank lines part the entries; values can stand above or below the molecule they belong to.

Columns and labels:
[1] = target: T1, GPR40 (Homo sapiens, UniProt O14842); experiment: Promoter-luciferase assay to measure GPR40 activation (HEK293 cells stably transfected with GPR40 cDNA); assay type: cell-based; settings: HEK293 cells stably transfected with GPR40, 5xSRE-luciferase
T1 construct: host or cells: HEK293 (ChemiBrite cell line)
Description: GPR40 activation was measured in HEK293 cells stably transfected with GPR40 cDNA (ChemiBrite cell lines from Millipore, US). These cells were transiently transfected with a pGL2 (Promega Inc.) plasmid having a 5×SRE sequence, cloned 5′ of a luciferase gene along with a β-galactosidase plasmid as normalizing control. Briefly, 35000 cells/well were seeded in a 96 well plates. After overnight incubation at 37° C., the cells were washed with PBS and transfected with the 5×-SRE-Luciferase plasmid and the β-galactosidase plasmid. 6 h post transfection, media was removed and replaced with fresh media with different concentration of drugs and incubated for 16 more hours. The cells were then lysed in 50 μL of Glo-Lysis buffer (Promega) for 30 min at room temperature. The cells were then centrifuged and lysates were collected. Luciferase activity was measured by adding 100 μL of luciferase substrate (Promega) in 20 μL of lysate and measuring the luminescence in luminometer. The […] activity was also measured by adding 20 μL of lysates with 20 μL of β-galactosidase buffer (Promega) and monitoring the absorbance at 415 nm. Luciferase values were divided by β-galactosidase values to normalize transfection efficiency (Table 2)

[2] = target: T1, GPR40; experiment: Intracellular Ca2+ flux fluorescent assay (FLIPR); assay type: cell-based
Description: To determine the EC50 of the compounds on intracellular Ca^2+ flux using a fluorescent assay (FLIPR)
GPR40 expressing stable cells were seeded at 25,000 numbers/well. 50 μL/well of assay buffer (20 mM HEPES+1×HBSS) was added to the cells and the cells were cultured for 20 min at 37° C. Cells were loaded with 50 μL/well of Calcium 5 dye and cultured for 45 min at 37° C.
The cells were challenged with compounds at a top concentration of 1000 nM (1:3 step down dilution—10 points). Intracellular Calcium flux was assessed by use of Screen Works 3.1 tool and statistical analysis was carried using Graph Pad Prism 4

[3] = tested on: n-STZ rat model; experiment: Oral glucose tolerance test in n-STZ rat model; assay type: in vivo, Wistar rat; settings: for % improvement in AUC glucose vs. control: n-STZ rat; for ED50: po, n-STZ rat OGTT model
Description: Primary Screening Protocol for GRP40 agonist test compounds in n-STZ rat model
Wistar rat pups of 1-2 day old injected with Streptozotocin (STZ) at 120 mg/kg dose by intraperitoneal route. All pups allowed grow normally and at the age of 12-14 week they were screen for glucose intolerance by performing the oral glucose tolerance test by tail clip method using glucometer. Animals showing glucose intolerance were selected for evaluation of test compound. Three to seven days of rest period animals were kept on overnight fasting. […] Animals were administered with test compound and then 15-60 min after the compound administration “O” min blood glucose levels were measured and immediately glucose load at 2 g/kg was administered orally. Blood glucose levels were measured at 30, 60 and 120 min after glucose load using by tail clip method using glucometer. Blood was also collected at 10 min after glucose load for measurement of insulin levels. Glucose area under the curve (AUC) was calculated using Graph Pad Prism software and % reduction in AUC-glucose vs vehicle treated control was calculated (Table 3).

[4] = Pharmacokinetics in rats; settings: rat, in vivo; for MRT: read-out: Mean residence time; for Vd: read-out: Vss; for bioavailability: po 3 mg/Kg vs iv 1 mg/Kg
[5] = read-out: EC50 in Luciferase assay
[6] = GPR40 expressing stable cells, intracellular Ca2+ flux, read-out: EC50 in FLIPR assay
[7] = iv 1 mg/Kg, read-out: T1/2, iv (converted)
[8] = po 3 mg/Kg, read-out: T1/2, po (converted)

T1 sequence (O14842 whole entry, species assumed): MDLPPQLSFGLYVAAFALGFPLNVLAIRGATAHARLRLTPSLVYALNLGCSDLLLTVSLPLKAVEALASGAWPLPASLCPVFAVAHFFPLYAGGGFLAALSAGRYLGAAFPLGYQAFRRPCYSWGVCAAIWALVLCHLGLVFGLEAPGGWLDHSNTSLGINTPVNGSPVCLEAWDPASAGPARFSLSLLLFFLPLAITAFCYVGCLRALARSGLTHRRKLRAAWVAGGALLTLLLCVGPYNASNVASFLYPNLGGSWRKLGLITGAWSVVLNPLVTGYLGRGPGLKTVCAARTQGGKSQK

- EC50 [1, 5]: 1.49 nM
- EC50 [2, 6]: 1.8 nM
SMILES: CC#C[C@@H](CC(=O)O)c1ccc(OCc2cccc(CN3CCc4sc(C)cc4C3)c2)cc1 [Compound 7, (S)-3-(4-((3-((2-methyl-6,7-dihydrothieno[3,2-c]pyridin-5(4H)-yl)methyl)benzyl)oxy)phenyl)hex-4-ynoic acid]
- % improvement in AUC glucose vs. control ([3]; 0.1 mg/Kg per oral): 30.4%
- % improvement in AUC glucose vs. control ([3]; 1 mg/Kg per oral): 46.0%
- % improvement in AUC glucose vs. control ([3]; 10 mg/Kg per oral): 57.0%

- EC50 [2, 6]: 2.32 nM
SMILES: CC#C[C@@H](CC(=O)O)c1ccc(OCc2cccc(CN3CCc4sc(Br)cc4C3)c2)cc1 [Compound 19, Calcium (S)-3-(4-((3-((2-bromo-6,7-dihydrothieno[3,2-c]pyridin-5(4H)-yl)methyl)benzyl)oxy)phenyl)hex-4-ynoate]

- EC50 [1, 5]: 3.7 nM
SMILES: CC#CC(CC(=O)O)c1ccc(OCc2cccc(CN3CCc4sc(C)cc4C3)c2)cc1 (stereo not drawn) [Compound 58, 3-(4-((3-((2-Methyl-6,7-dihydrothieno[3,2-c]pyridin-5(4H)-yl)methyl)benzyl)oxy)phenyl)hex-4-ynoic acid]

- EC50 [1, 5]: 12.6 nM
SMILES: CC#C[C@@H](CC(=O)O)c1ccc(OCc2cccc(CN3CCc4sc(C(=O)NC5CC5)cc4C3)c2)cc1 [Compound 61, (S)-3-(4-((3-((2-(cyclopropylcarbamoyl)-6,7-dihydrothieno[3,2-c]pyridin-5(4H)-yl)methyl)benzyl)oxy)phenyl)hex-4-ynoic acid]

- EC50 [1, 5]: 0.8 nM
SMILES: CC#C[C@@H](CC(=O)O)c1ccc(OCc2cccc(CN3CCc4sc(C5CC5)cc4C3)c2)cc1 [Compound 69, (S)-3-(4-((3-((2-Cyclopropyl-6,7-dihydrothieno[3,2-c]pyridin-5(4H)-yl)methyl)benzyl)oxy)phenyl)hex-4-ynoic acid compound with 2,2,2-trifluoroacetic acid]

- EC50 [1, 5]: 0.4 nM
SMILES: CC#C[C@@H](CC(=O)O)c1ccc(OCc2cccc(CN3CCc4sc(CC)cc4C3)c2)cc1 [Compound 71, (S)-3-(4-((3-((2-Ethyl-6,7-dihydrothieno[3,2-c]pyridin-5(4H)-yl)methyl)benzyl)oxy)phenyl)hex-4-ynoic acid]

The next lines start with the molecule.

SMILES: CC#C[C@@H](CC(=O)O)c1ccc(OCc2cccc(CN3CCc4sccc4C3)c2)cc1 [Compound 1, (S)-3-(4-((3-((6,7-dihydrothieno[3,2-c]pyridin-5(4H)yl)methyl)benzyl)oxy)phenyl)hex-4-ynoic acid]
- EC50 [1, 5]: 7.5 nM
- EC50 [2, 6]: 117 nM

SMILES: CC#C[C@@H](CC(=O)O)c1ccc(OCc2cccc(CN3CCc4nc(C)sc4C3)c2)cc1 [Compound 10, (S)-3-(4-((3-((2-methyl-6,7-dihydrothiazolo[5,4-c]pyridin-5(4H)-yl)methyl)benzyl)oxy)phenyl)hex-4-ynoic acid]
- EC50 [1, 5]: 16.9 nM
- % improvement in AUC glucose vs. control ([3]; 0.1 mg/Kg per oral): 21.1%
- % improvement in AUC glucose vs. control ([3]; 1 mg/Kg per oral): 35.7%
- % improvement in AUC glucose vs. control ([3]; 10 mg/Kg per oral): 45.0%

SMILES: CC#C[C@@H](CC(=O)[O][Ca][O]C(=O)C[C@H](C#CC)c1ccc(OCc2cccc(CN3CCc4nc(C)sc4C3)c2)cc1)c1ccc(OCc2cccc(CN3CCc4nc(C)sc4C3)c2)cc1 [Compound 17, calcium (S)-3-(4-((3-((2-methyl-6,7-dihydrothiazolo[4,5-c]pyridin-5(4H)-yl)methyl)benzyl)oxy)phenyl)hex-4-ynoate(S)-3-(4-((3-((2-methyl-6,7-dihydrothiazolo[4,5-c]pyridin-5(4H)-yl)methyl)benzyl)oxy)phenyl)hex-4-ynoate]
- EC50 ([1]; EC50 in Luciferase assay): 4.7 nM
- % improvement in AUC glucose vs. control ([3]; 1 mg/Kg per oral): 37.1%
- % improvement in AUC glucose vs. control ([3]; 10 mg/Kg per oral): 44.7%
- EC50 [2]: 10.2 nM

SMILES: CC#C[C@@H](CC(=O)O)c1ccc(OCc2cccc(CN3Cc4cnn(C)c4C3)c2)cc1 [Compound 22, (S)-3-(4-((3-((1-Methylpyrrolo[3,4-c]pyrazol-5(1H,4H,6H)-yl)methyl)benzyl)oxy)phenyl)hex-4-ynoic acid]
- EC50 [1, 5]: 31.5 nM
- EC50 [2, 6]: 36.3 nM

SMILES: CC#C[C@@H](CC(=O)[O][Ca][O]C(=O)C[C@H](C#CC)c1ccc(OCc2cccc(CN3CCc4nc(Cl)sc4C3)c2)cc1)c1ccc(OCc2cccc(CN3CCc4nc(Cl)sc4C3)c2)cc1 [Compound 60, Calcium (S)-3-(4-((3-((2-chloro-6,7-dihydrothiazolo[5,4-c]pyridin-5(4H)-yl)methyl)benzyl)oxy)phenyl)hex-4-ynoate]
- EC50 ([1]; EC50 in Luciferase assay): 5.6 nM
- % improvement in AUC glucose vs. control ([3]; 1 mg/Kg per oral): 44%
- % improvement in AUC glucose vs. control ([3]; 10 mg/Kg per oral): 47%
- ED50 [3]: 0.04 mg/kg
- AUC(0-t) ([4]; iv 1 mg/Kg): 18600 ± 2170 ng·h/mL
- C0 ([4]; iv 1 mg/Kg): 3390 ± 330 ng/mL
- clearance ([4]; iv 1 mg/Kg): 0.89 ± 0.1 mL/min/kg
- MRT ([4]; iv 1 mg/Kg): 6.28 ± 0.77 h
- half-life [4, 7]: 5.57 ± 1.46 h
- Vd ([4]; iv 1 mg/Kg): 0.33 ± 0.01 L/kg
- Cmax ([4]; po 3 mg/Kg): 7770 ± 1940 ng/mL
- Tmax ([4]; po 3 mg/Kg): 1 h
- bioavailability [4]: 93%
- MRT ([4]; po 3 mg/Kg): 5.74 ± 0.1 h
- half-life [4, 8]: 5.45 ± 0.79 h

SMILES: CC#C[C@@H](CC(=O)O)c1ccc(OCc2cccc(CN3CCc4sc(C(=O)N5CCCC5)cc4C3)c2)cc1 [Compound 62, (S)-3-(4-((3-((2-(pyrrolidine-1-carbonyl)-6,7-dihydrothieno[3,2-c]pyridin-5(4H)-yl)methyl)benzyl)oxy)phenyl)hex-4-ynoic acid]
- EC50 [1, 5]: 3 nM

SMILES: CC#C[C@@H](CC(=O)O)c1ccc(OCc2cccc(CN3CCc4sc(NC(C)=O)cc4C3)c2)cc1 [Compound 63, (S)-3-(4-((3-((2-Aacetamido-6,7-dihydrothieno[3,2-c]pyridin-5(4H)-yl)methyl)benzyl)oxy)phenyl)hex-4-ynoic acid]
- EC50 [1, 5]: 4.4 nM

SMILES: CC#C[C@@H](CC(=O)[O][Ca][O]C(=O)C[C@H](C#CC)c1ccc(OCc2cccc(CN3CCc4oc(C5CC5)nc4C3)c2)cc1)c1ccc(OCc2cccc(CN3CCc4oc(C5CC5)nc4C3)c2)cc1 [Compound 64, Calcium (S)-3-(4-((3-((2-cyclopropyl-6,7-dihydrooxazolo[4,5-c]pyridin-5(4H)-yl)methyl)benzyl)oxy)phenyl)hex-4-ynoate]
- EC50 ([1]; EC50 in Luciferase assay): 1.2 nM
- % improvement in AUC glucose vs. control ([3]; 1 mg/Kg per oral): 46%
- % improvement in AUC glucose vs. control ([3]; 10 mg/Kg per oral): 47%
- ED50 [3]: 0.09 mg/kg
- AUC(0-t) ([4]; iv 1 mg/Kg): 56100 ± 4350 ng·h/mL
- C0 ([4]; iv 1 mg/Kg): 10200 ± 1540 ng/mL
- clearance ([4]; iv 1 mg/Kg): 0.27 ± 0.03 mL/min/kg
- MRT ([4]; iv 1 mg/Kg): 10.1 ± 1.36 h
- half-life [4, 7]: 7.77 ± 1.07 h
- Vd ([4]; iv 1 mg/Kg): 0.16 ± 0.01 L/kg
- Cmax ([4]; po 3 mg/Kg): 8060 ± 2190 ng/mL
- Tmax ([4]; po 3 mg/Kg): 2 h
- bioavailability [4]: 45%
- MRT ([4]; po 3 mg/Kg): 6.59 ± 0.93 h
- half-life [4, 8]: 4.51 ± 0.61 h

SMILES: CC#C[C@@H](CC(=O)O)c1ccc(OCc2cccc(CN3CCc4sc([N+](=O)[O-])cc4C3)c2)cc1 [Compound 65, (S)-3-(4-((3-((2-Nitro-6,7-dihydrothieno[3,2-c]pyridin-5(4H)-yl)methyl)benzyl)oxy)phenyl)hex-4-ynoic acid]
- EC50 [1, 5]: 1.6 nM

SMILES: CC#C[C@@H](CC(=O)O)c1ccc(OCc2cccc(CN3CCc4ncccc4C3)c2)cc1 [Compound 68, (S)-3-(4-((3-((7,8-Dihydro-1,6-naphthyridin-6(5H)-yl)methyl)benzyl)oxy)phenyl) hex-4-ynoic acid]
- EC50 [1, 5]: 11.9 nM

SMILES: CC#C[C@@H](CC(=O)O)c1ccc(OCc2cccc(CN3CCc4sc(C(C)=O)cc4C3)c2)cc1 [Compound 72, (S)-3-(4-((3-((2-Acetyl-6,7-dihydrothieno[3,2-c]pyridin-5(4H)-yl)methyl)benzyl)oxy)phenyl)hex-4-ynoic acid]
- EC50 [1, 5]: 2.3 nM
